{
  "source": "patent US6589570B1",
  "about": "“Pharmaceutical formulation useful for the treatment of hepatitis B, hepatitis C and other viral infections of the liver and a process for its preparation” (priority 1999, dated 2003)",
  "key": {"[1]": {"system": "cultured rat hepatocytes", "details": "cited from earlier work"}, "[2]": {"system": "isolated rat hepatocytes", "assay": "Anti hepatotoxic potential, β-galactosamine challenged isolated rat hepatocytes", "assay_type": "cell-based", "details": "0.5 mM", "protocol": "The liver was perfused through the portal vein with 30-50 ml of cold sodium citrate (0.027M) in calcium free lockets solution. During the perfusion, the liver gets blanched and fully distended. Perfusion is generally completed within 5 minutes of anaesthetizing the animal. The perfused liver is excised and washed well with the perfusion fluid and pressed in folds of sterile filter paper, weighed and cut into several small pieces and with a pair of scissors. A known wet weight of the liver (usually between 2-6 gm) was transferred with 5 volume of cold 0.25M sucrose into a sterile glass homogenizer and finely grounded. The cell suspension was filtered once, without application of pressure through 200-mesh brass gauze to remove strands of connective tissue and clumps of cells. The suspension contained some cell debris and blood cells at this stage, which were removed by centrifugation at a low speed (100-200 g) for 2 minutes. After removal of the supernatant, the cell sediment was resuspended in a known volume of the minimum essential medium for further studies. […] The cells, which have not taken the dye, are live cells, which are counted. […] Four sets of isolated rat hepatocyte cultures were put up. […] Set III with 0.5 mM concentration of β-galactosamine, a known hepatotoxic agent and set IV was treated with β-galactosamine and then protected with the formulation of the present invention. […]"}},
  "data": [
    {"compound": "COC[C@@H](Cc1ccc(OC)c(OC)c1)[C@@H](COC)Cc1ccc(OC)c(OC)c1", "note": "[Phyllanthin]", "values": [
      {"measurement": "CCl4 or galatosamine induced cytotoxicity to cultured rat hepatocytes", "setting": "[1]", "value": "reduced"}
    ]},
    {"compound": "N[C@@H]1[C@@H](O)[C@@H](O)[C@@H](CO)O[C@H]1O", "note": "[β-galactosamine]", "values": [
      {"measurement": "hepatotoxicity on isolated rat hepatocytes", "setting": "[2]", "value": "profound hepatotoxic chemical"}
    ]},
    {"compound": "COC[C@@H]1Cc2cc(OC)c3c(c2[C@H](c2ccc(OC)c(OC)c2)[C@H]1COC)OCO3", "note": "[Hypo phyllanthin]", "values": [
      {"measurement": "CCl4 or galatosamine induced cytotoxicity to cultured rat hepatocytes", "setting": "[1]", "value": "reduced"}
    ]}
  ]
}
